For data set [1], the target named is GSK-3beta (H350L mutant) (Homo sapiens, UniProt P49841, H350L). Kind of data set: Inhibition of human GSK-3beta H350L mutant (2 to end residues) at 10 uM using phospho GS2 peptide as substrate after 40 mins by [gamma-33ATP] radiometric assay relative to control. The settings on record: human GSK-3beta H350L mutant enzyme (residues 2 to end), probe phospho GS2 peptide.

Data set [2] concerns the target Glycogen synthase kinase-3 beta (Homo sapiens, UniProt P49841, H350L). Kind of data set: Inhibition of human GSK-3beta H350L mutant (2 to end residues) at 10 uM using phospho GS2 peptide as substrate after 40 mins by [gamma-33ATP] radiometric assay.
Data set [3] concerns Glycogen synthase kinase-3 alpha (Homo sapiens), P49840 [UNDEFINED MUTATION]. Kind of data set: Inhibition of human GSK-3alpha S449A mutant (2 to end residues) at 10 uM using phospho GS2 peptide as substrate after 40 mins in presence of [gamma-33ATP] by scintillation counting method relative to control.
Sequence of Glycogen synthase kinase-3 alpha (Homo sapiens), P49840 [UNDEFINED MUTATION] (P49840 whole entry, looked up, stated change not applied): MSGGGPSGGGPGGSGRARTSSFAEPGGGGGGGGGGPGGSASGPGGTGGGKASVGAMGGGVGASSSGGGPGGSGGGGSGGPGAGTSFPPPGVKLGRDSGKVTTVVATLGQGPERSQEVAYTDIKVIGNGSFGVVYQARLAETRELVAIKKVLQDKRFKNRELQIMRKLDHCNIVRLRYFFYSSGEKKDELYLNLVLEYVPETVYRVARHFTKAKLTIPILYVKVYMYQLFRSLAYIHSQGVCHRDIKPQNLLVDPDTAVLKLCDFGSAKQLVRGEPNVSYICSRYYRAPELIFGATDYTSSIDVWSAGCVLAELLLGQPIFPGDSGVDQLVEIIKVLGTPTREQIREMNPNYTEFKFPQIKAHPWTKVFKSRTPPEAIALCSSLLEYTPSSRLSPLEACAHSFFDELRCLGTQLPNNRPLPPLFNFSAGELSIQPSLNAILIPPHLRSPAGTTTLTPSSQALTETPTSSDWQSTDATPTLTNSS
For data set [4], the target named is Glycogen synthase kinase-3 alpha (Homo sapiens, UniProt P49840). In words: Inhibition of human GSK-3alpha S449A mutant (2 to end residues) using phospho GS2 peptide as substrate after 40 mins in presence of [gamma-33ATP] by scintillation counting method.
Sequence of Glycogen synthase kinase-3 alpha (P49840 whole entry): as the sequence (P49840 whole entry, looked up, stated change not applied) above

Sequence of GSK-3beta (H350L mutant) (P49841 whole entry, looked up, stated change not applied, the tested form may be a part): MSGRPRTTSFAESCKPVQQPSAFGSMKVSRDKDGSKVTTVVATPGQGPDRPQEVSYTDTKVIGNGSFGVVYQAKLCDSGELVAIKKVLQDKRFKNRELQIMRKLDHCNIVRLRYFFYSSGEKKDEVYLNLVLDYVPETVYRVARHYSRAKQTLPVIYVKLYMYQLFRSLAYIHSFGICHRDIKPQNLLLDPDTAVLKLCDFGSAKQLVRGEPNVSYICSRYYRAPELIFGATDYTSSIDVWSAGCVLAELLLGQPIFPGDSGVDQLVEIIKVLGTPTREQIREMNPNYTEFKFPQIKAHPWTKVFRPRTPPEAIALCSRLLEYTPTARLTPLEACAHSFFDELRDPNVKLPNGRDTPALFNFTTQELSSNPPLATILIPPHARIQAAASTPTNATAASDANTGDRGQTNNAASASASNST
Sequence of Glycogen synthase kinase-3 beta (P49841 whole entry, looked up, stated change not applied): as the sequence (P49841 whole entry, looked up, stated change not applied, the tested form may be a part) above

By inhibition is commonly meant the change of the read-out against control, counted positive when it falls. Usually IC50 stands for the concentration that inhibits the measured activity by half. For the molecule `Cc1ccc(-c2ccc(/C=C3/SC(=N)NC3=O)o2)c([N+](=O)[O-])c1`, the inhibition at 40 min, 10 µM in data set [1] was found to be 89%. In addition, the 50% inhibitory concentration (IC50) in data set [2] came to 320 nM; in data set [4] it was 162 nM. Also, the inhibition in data set [3] is 85%.

As to `COc1ccc(CNc2cc(-c3ccco3)n[nH]2)cc1`, the inhibition in data set [3] was found to be 1%.

In the case of `N#Cc1ccccc1-c1ccc(C=C2C(=O)NC(=S)NC2=O)o1`, the inhibition in data set [3] was determined as 14%.

`Cc1ccccc1OCC(=O)Nc1ccc(Oc2ccc3c(c2)C(=O)NC3=O)cc1`: the inhibition in data set [3] came out at 54%. The IC50 in data set [4] was found to be 10200 nM.

Take `N=C1NC(=O)/C(=C\c2ccc(-c3cc([N+](=O)[O-])ccc3Cl)o2)S1`: the inhibition at 40 min, 10 µM in data set [1] is 65%. The IC50 in data set [2] is 1760 nM; in data set [4], 2680 nM. For the same molecule, the inhibition in data set [3] worked out at 71%.

As for `Cc1c(Cl)cccc1-c1ccc(CNc2nc[nH]n2)o1`, the inhibition in data set [3] came to 8%.

As for `CCCN1C(=O)/C(=C\c2ccc(-c3ccc(Cl)cc3)o2)NC1=S`, the inhibition in data set [3] came to 17%.

On to `Cc1[nH]nc2c1C(c1ccnc3ccccc13)C(C#N)=C(N)O2` (stereo not drawn), for which, in data set [3], the inhibition is 6%.

`CCN1C(=O)/C(=C\c2ccc(-c3ccc(C(=O)O)cc3)o2)N(CC)C1=S`: the inhibition in data set [3] is 38%.

Consider `COc1ccc([N+](=O)[O-])cc1-c1ccc(/C=C2/SC(=N)NC2=O)o1`, for which the inhibition in data set [3] came out at 15%.

`CC(=O)/N=C1/NC(=O)/C(=C\c2ccc(-c3ccc(F)cc3F)o2)S1`: the inhibition in data set [3] was determined as 15%.

As for `O=C(N/N=C/c1cccc(Cl)c1)c1cc(-c2ccc3c4c(cccc24)CC3)[nH]n1`, in data set [3], the inhibition came out at 52%. For the same molecule, the IC50 in data set [4] amounted to 11200 nM.

Regarding `N=C1NC(=O)/C(=C\c2ccc(-c3cccc(C(=O)O)c3)o2)S1`, the inhibition at 40 min, 10 µM in data set [1] was found to be 93%. Further, the IC50 turned out to be 308 nM in data set [2] and 207 nM in data set [4]. The inhibition in data set [3] was 97%.

In the case of `NC1=NC(=O)/C(=C\c2ccc(-c3ccccc3[N+](=O)[O-])o2)S1`, the inhibition at 40 min, 10 µM in data set [1] came out at 82%. For the same molecule, the IC50 in data set [2] amounted to 2500 nM; in data set [4] it was 2800 nM. For the same molecule, in data set [3], the inhibition is 91%.

For `CCN1C(=O)/C(=C\c2ccc(-c3ccc(Cl)cc3Cl)o2)NC1=S`, in data set [3], the inhibition is 26%.

As to `O=C(O)CCC(=O)N1N=C(c2c(O)nc3ccc(Cl)cc3c2-c2ccccc2)CC1c1ccco1` (stereo not drawn), the inhibition in data set [3] was determined as 67%.

`O=C1NC(=S)N/C1=C/c1ccc(-c2cccc(C(=O)O)c2)o1`: the inhibition at 40 min, 10 µM in data set [1] came to 96%. Further, the IC50 came to 338 nM in data set [2] and 145 nM in data set [4]. Also, the inhibition in data set [3] came to 97%.

Take `O=C1NC(=S)N/C1=C/c1ccc(Sc2ccc(Cl)cc2)o1`: in data set [3], the inhibition was determined as 23%.

With `O=C(CSc1nc2ccccc2[nH]c1=O)Nc1ccc2c(c1)OCO2`, the inhibition in data set [3] worked out at 2%.

`CCCCCSc1nc2c(c(=O)[nH]c(=O)n2C)n1CC(O)COc1ccccc1` (stereo not drawn): in data set [3], the inhibition was 25%.

As for `O=C1NC(=S)N/C1=C/c1ccc(-c2cc([N+](=O)[O-])ccc2Cl)o1`, in data set [3], the inhibition was determined as 22%.

Take `N#Cc1cn(CCCN2CCN(CCCn3cc(C#N)c(=O)[nH]c3=O)CC2)c(=O)[nH]c1=O`: the inhibition in data set [3] came to 2%.

As to `NC(=O)Cc1nc2sc3c(c2c(=O)[nH]1)CCN(Cc1ccccc1)C3`, the inhibition in data set [3] is -1%.

On to `Cc1cc(C)cc(/N=C2/NC(=O)/C(=C\c3ccc(-c4cccc(Cl)c4)o3)S2)c1`, for which the inhibition in data set [3] was determined as 10%.

On to `O=C1N/C(=N/c2ccccc2)S/C1=C/c1ccc(Sc2ccc(Cl)cc2)o1`, for which the inhibition in data set [3] was found to be 47%.

As to `CC(=O)c1cn(CCCCCCCCCCn2cc(C(C)=O)c(=O)[nH]c2=O)c(=O)[nH]c1=O`, the inhibition in data set [3] is 13%.

`O=C(CSc1nnc(CCc2nnc(SCC(=O)c3ccccc3)[nH]2)[nH]1)c1ccccc1`: in data set [3], the inhibition came to 25%.

As for `COc1ccc([N+](=O)[O-])cc1-c1ccc(/C=C2/S/C(=N\C(C)=O)NC2=O)o1`, in data set [3], the inhibition amounted to 9%.

Consider `O=C1NC(=S)N/C1=C/c1ccc(-c2ccc(C(=O)O)cc2)o1`, for which, in data set [1], the inhibition at 40 min, 10 µM was 91%. Moreover, the IC50 in data set [2] is 743 nM; in data set [4], 309 nM. The inhibition in data set [3] was 97%.

Consider `O=C1NC(=O)N(c2ccc(Br)cc2)C(=O)/C1=C\NCCc1c[nH]c2ccccc12`, for which the inhibition in data set [3] was 66%. Besides, the IC50 in data set [4] was 4600 nM.

Regarding `N=C1NC(=O)/C(=C\c2ccc(-c3ccc(Cl)c([N+](=O)[O-])c3)o2)S1`, the inhibition in data set [3] was 49%.

Consider `O=C1NC(=S)NC(=O)C1=Cc1ccc(-c2cc(Cl)ccc2Cl)o1`, for which the inhibition in data set [3] turned out to be 26%.

Turning to `Cc1ccc(OCc2n[nH]c(Nc3ccccc3)n2)cc1`, in data set [3], the inhibition is 5%.

Consider `Cc1ccc(-c2ccc(/C=C3/SC(=N)NC3=O)o2)cc1Cl`, for which, in data set [1], the inhibition at 40 min, 10 µM was 77%. The half-inhibitory concentration (IC50) was determined as 1430 nM in data set [2] and 301 nM in data set [4]. In data set [3], the inhibition came to 81%.

As for `NS(=O)(=O)c1ccc(N/C=C2/C(=O)NC(=O)N(c3ccccc3)C2=O)cc1`, the inhibition in data set [3] is 17%.

In the case of `CCCOC(=O)c1cc(-c2ccc(/C=C3/NC(=S)NC3=O)o2)ccc1Cl`, in data set [1], the inhibition at 40 min, 10 µM came to 81%. Moreover, the half-inhibitory concentration (IC50) in data set [2] came to 405 nM; in data set [4], 159 nM. In addition, in data set [3], the inhibition worked out at 88%.

`O=C1N/C(=N/c2ccccc2)S/C1=C/c1ccc(-c2cccc(C(=O)O)c2)o1`: the inhibition in data set [3] was determined as 15%.

As to `NC(=O)CSc1nc2c(N)ncnc2n1Cc1ccccc1`, in data set [3], the inhibition is -10%.

Take `COc1ccc(-c2ccc(CNc3n[nH]c(C)n3)o2)cc1Cl`: the inhibition in data set [3] came out at 8%.

For the molecule `Cc1ccc(Cl)cc1-c1ccc(/C=C2/S/C(=N\c3ccccc3)NC2=O)o1`, the inhibition in data set [3] was found to be 0%.

Turning to `N=C1NC(=O)/C(=C\c2ccc(-c3ccc([N+](=O)[O-])cc3Cl)o2)S1`, the inhibition in data set [3] was 20%.

For the molecule `Nc1nc(CCCc2n[nH]c(N)n2)n[nH]1`, the inhibition in data set [3] came to 16%.

Take `COc1cc([N+](=O)[O-])ccc1-c1ccc(/C=C2/SC(=N)NC2=O)o1`: the inhibition in data set [3] came out at 29%.

On to `CN1C(=O)/C(=C\c2ccc(-c3cccc(Cl)c3)o2)N(C)C1=S`, for which, in data set [3], the inhibition worked out at 13%.

For `CCCCOC(=O)c1cc(-c2ccc(/C=C3/NC(=S)NC3=O)o2)ccc1Cl`, in data set [1], the inhibition at 40 min, 10 µM stood at 55%. Moreover, the results for the 50% inhibitory concentration (IC50) in data set [2] and in data set [4] were 1190 nM and 710 nM, respectively. In data set [3], the inhibition is 65%.

As to `O=C1NC(=S)N/C1=C/c1ccc(-c2ccc([N+](=O)[O-])cc2)o1`, the inhibition at 40 min, 10 µM in data set [1] was 72%. In addition, the figures for the 50% inhibitory concentration (IC50) in data set [2] and in data set [4] were 584 nM and 412 nM, respectively. In addition, the inhibition in data set [3] amounted to 88%.

On to `CC(=O)/N=C1/NC(=O)/C(=C\c2ccc(-c3ccccc3C(=O)O)o2)S1`, for which the inhibition in data set [3] was determined as 11%.

`Cc1ccc(-c2ccc(/C=C3/NC(=S)NC3=O)o2)cc1Cl`: in data set [1], the inhibition at 40 min, 10 µM was 72%. Further, the IC50 in data set [2] turned out to be 1290 nM; in data set [4] it was 904 nM. The inhibition in data set [3] is 76%.

`O=C1NC(=S)N/C1=C/c1ccc(-c2ccccc2Cl)o1`: the inhibition at 40 min, 10 µM in data set [1] was determined as 86%. Further, the IC50 in data set [2] stood at 917 nM; in data set [4], 609 nM. Also, the inhibition in data set [3] is 84%.

Take `Cc1cc([N+](=O)[O-])ccc1-c1ccc(/C=C2/SC(=N)NC2=O)o1`: the inhibition in data set [3] stood at 44%.

On to `O=C1N/C(=N/Cc2ccccc2)S/C1=C/c1ccc(-c2ccccc2)o1`, for which, in data set [3], the inhibition amounted to 30%.

`COc1ccc(-c2n[nH]cc2/C=N\NC(=O)c2ccccc2I)cc1OC`: the inhibition in data set [3] is 44%.

`O=C(O)CCC(=O)N1N=C(c2c(-c3ccccc3)c3cc(Cl)ccc3[nH]c2=O)CC1c1ccco1` (stereo not drawn): the IC50 in data set [4] was 13000 nM.

Regarding `O=C1N/C(=N/c2ccccc2)S/C1=C/c1ccc(-c2ccccc2)o1`, in data set [3], the inhibition came out at 23%.

On to `O=C1NC(=S)N/C1=C/c1ccc(-c2ccc(Cl)c(Cl)c2)o1`, for which, in data set [1], the inhibition at 40 min, 10 µM turned out to be 59%. The IC50 in data set [2] amounted to 678 nM; in data set [4], 370 nM. Also, the inhibition in data set [3] was determined as 65%.

Take `COc1cc(CNc2nn[nH]n2)ccc1OCC(N)=O`: the inhibition in data set [3] was 1%.

Regarding `O=C(O)c1cc(NS(=O)(=O)c2ccc3c4c(cccc24)C(=O)N3)ccc1O`, the inhibition in data set [3] was determined as 15%.

As to `O=C1N/C(=N/c2ccccc2)S/C1=C/c1ccco1`, the inhibition in data set [3] came out at 21%.

With `COc1cc(CNc2ccc(CNc3nc[nH]n3)cc2)ccc1OCC(=O)NC(C)(C)C`, the inhibition in data set [3] came out at 1%.

As for `Cc1ccc(SCc2[nH]nc3c2C(c2ccnc4ccccc24)C(C#N)=C(N)O3)cc1` (stereo not drawn), in data set [3], the inhibition is 2%.

As to `O=C(N/N=C/c1cccnc1)c1cc(-c2cccc3ccccc23)n[nH]1`, in data set [3], the inhibition is 12%.

With `O=C1NC(=S)N/C1=C/c1ccc(-c2c(Br)cc([N+](=O)[O-])cc2Br)o1`, in data set [3], the inhibition came to 42%.

Turning to `CC1=NN(c2cccc(C(=O)O)c2)C(=O)/C1=C\c1ccc(-c2ccc3c(c2)C(=O)NC3=O)o1`, the inhibition in data set [3] turned out to be 58%. The 50% inhibitory concentration (IC50) in data set [4] came out at 6150 nM.

As for `O=C(COC(=O)c1cc(O)nc2ccccc12)c1cccc2ccccc12`, the inhibition in data set [3] came to 2%.

For `CCOc1c(/C=C2/SC(=O)NC2=O)cccc1OC`, the inhibition in data set [3] turned out to be 54%. For the same molecule, the IC50 in data set [4] came to 16800 nM.

For the molecule `COc1cc(/C=C2/C(=O)NC(=O)N(c3ccccc3)C2=O)ccc1O`, the inhibition in data set [3] turned out to be 14%.

`COC(=O)c1ccc(-c2ccc(/C=C3\C(=O)NC(=N)N3C)o2)cc1`: the inhibition in data set [3] is 32%.

`N#CC1=C(N)Oc2[nH]nc(-c3cccnc3)c2/C1=C1\C(=O)Nc2ccc(Br)cc21`: the inhibition in data set [3] was 2%.

For `CC(=O)/N=C1/NC(=O)/C(=C\c2ccc(-c3ccc(C)c(Cl)c3)o2)S1`, the inhibition in data set [3] was found to be 21%.
